Test results reported in ChEMBL document CHEMBL1150043, “Pachyclavulariolides M-R, six novel diterpenoids from a Taiwanese soft coral Pachyclavularia violacea” (2003).
In brackets after ≈: the same amount, converted by molar mass.

Test system: P388
Test: Cytotoxicity against mouse P388 cells by MTT method
Assay type: functional
Settings: read-out: ED50 (the source's name)

CC(=O)O[C@@H]1[C@@H](OC(C)=O)C2=C(C)C(=O)O[C@]2(O)C[C@@]2(C)O[C@@H]2CC[C@H](C)[C@H]2CC[C@]1(C)O2 [PACHYCLAVULARIOLIDE M] was tested, and the EC50 was 3.2 µg/mL (≈ 6.86 µM).
